Measurements reported in patent publication US11312727B1, “Macrocyclic flu endonuclease inhibitors” (Janssen BioPharma, Inc., priority 2018, dated 2022).
pEC50: −log10 of the molar value.

Tests used:
[1] = tested on: Influenza strain A549 A/WSN/33 (H1N1); assay: microbe, parasite or virus in culture; format: cell-based; details: Influenza A virus, A549, 20 h, A549 cells, influenza A/WSN/33 (H1N1), 20 hours incubation; read-out: A549_A(H1N1) EC50
in vitro = details: human, CC50, uninfected A549 cells, CellTiter-Glo

SMILES	pEC50 [1]	CC50 (in vitro) [nM]
C[C@@H]1N2C/C=C/COc3c(F)cccc3[C@@H](c3ccccc3)N1n1ccc(=O)c(O)c1C2=O (single isomer, unassigned) [Compound 91A, (18*R,19*R,E)-4-fluoro-12-hydroxy-19-methyl-18-phenyl-6,9-dihydro-18H-10,17-methanobenzo[b]pyrido[1,2-f][1]oxa[5,6,9]triazacyclotridecine-11,13-dione]	8.52	> 1000
C[C@H]1N2C/C=C/COc3c(F)cccc3[C@H](c3ccccc3)N1n1ccc(=O)c(O)c1C2=O (single isomer, unassigned) [Compound 91B, (18*S,19*S,E)-4-fluoro-12-hydroxy-19-methyl-18-phenyl-6,9-dihydro-18H-10,17-methanobenzo[b]pyrido[1,2-f][1]oxa[5,6,9]triazacyclotridecine-11,13-dione]	< 6.30	> 1000
O=C1c2c(O)c(=O)ccn2N2CN1CC/C=C\COc1ccc(F)c3c1[C@@H]2c1ccccc1SC3 (single isomer, unassigned) [Compound 93A, (1*R,13Z)-20-fluoro-7-hydroxy-16-oxa-23-thia-2,3,10-triazahexacyclo[15.12.1.12,10.03,8.021,30.024,29]hentriaconta-4,7,13,17,19,21(30),24(29),25,27-nonaene-6]	< 6.30	> 1000
O=C1c2c(O)c(=O)ccn2N2CN1CC/C=C\COc1ccc(F)c3c1[C@H]2c1ccccc1SC3 (single isomer, unassigned) [Compound 93B, (1*SR,13Z)-20-fluoro-7-hydroxy-16-oxa-23-thia-2,3,10-triazahexacyclo[15.12.1.12,10.03,8.021,30.024,29]hentriaconta-4,7,13,17,19,21(30),24(29),25,27-nonaene-6]	8.66	> 200
O=C1c2c(O)c(=O)ccn2N2CN1C/C=C\COc1cc(C(F)F)ccc1[C@@H]2c1ccccc1 (single isomer, unassigned) [Compound 94A, (18*S,Z)-3-(difluoromethyl)-12-hydroxy-18-phenyl-6,9-dihydro-18H-10,17-methanobenzo[b]pyrido[1,2-f][1]oxa[5,6,9]triazacyclotridecine-11,13-dione]	7.59	> 1000
O=C1c2c(O)c(=O)ccn2N2CN1C/C=C\COc1cc(C(F)F)ccc1[C@H]2c1ccccc1 (single isomer, unassigned) [Compound 94B, (18*R,Z)-3-(difluoromethyl)-12-hydroxy-18-phenyl-6,9-dihydro-18H-10,17-methanobenzo[b]pyrido[1,2-f][1]oxa[5,6,9]triazacyclotridecine-11,13-dione]	< 6.30	> 1000
O=C1c2c(O)c(=O)ccn2N2CN1C1(/C=C/COc3c(F)cccc3[C@@H]2c2ccccc2)CC1 (single isomer, unassigned) [Compound 95A, (18′*S,E)-4′-fluoro-12′-hydroxy-18′-phenyl-6′H,18′H-spiro[cyclopropane-1,9′-[10,17]methanobenzo[b]pyrido[1,2-f][1]oxa[5,6,9]triazacyclotridecine]-11′,13′-dione]	< 6.30	> 1000
O=C1c2c(O)c(=O)ccn2N2CN1C1(/C=C/COc3c(F)cccc3[C@H]2c2ccccc2)CC1 (single isomer, unassigned) [Compound 95B, (18′*R,E)-4′-fluoro-12′-hydroxy-18′-phenyl-6′H,18′H-spiro[cyclopropane-1,9′-[10,17]methanobenzo[b]pyrido[1,2-f][1]oxa[5,6,9]triazacyclotridecine]-11′,13′-dione]	8.77	> 1000
O=C1c2c(O)c(=O)ccn2N2CN1C1(/C=C/COc3c(Cl)cccc3[C@H]2c2ccccc2)CC1 (single isomer, unassigned) [Compound 96A, (18′*R,E)-4′-chloro-12′-hydroxy-18′-phenyl-6′H,18′H-spiro[cyclopropane-1,9′-[10,17]methanobenzo[b]pyrido[1,2-f][1]oxa[5,6,9]triazacyclotridecine]-11′,13′-dione]	8.72	> 200
O=C1c2c(O)c(=O)ccn2N2CN1C1(/C=C/COc3c(Cl)cccc3[C@@H]2c2ccccc2)CC1 (single isomer, unassigned) [Compound 96B]	< 6.30	> 1000
CC[C@@H]1/C=C/COc2cc(Cl)ccc2[C@@H](c2ccccc2)N2CN1C(=O)c1c(O)c(=O)ccn12 (single isomer, unassigned) [Compound 97AA]	8.24	> 1000
CC[C@H]1/C=C/COc2cc(Cl)ccc2[C@@H](c2ccccc2)N2CN1C(=O)c1c(O)c(=O)ccn12 (single isomer, unassigned) [Compound 97AB]	8.25	> 1000
CC[C@@H]1/C=C/COc2cc(Cl)ccc2[C@H](c2ccccc2)N2CN1C(=O)c1c(O)c(=O)ccn12 (single isomer, unassigned) [Compound 97BA]	< 6.30	> 1000
CC[C@H]1/C=C/COc2cc(Cl)ccc2[C@H](c2ccccc2)N2CN1C(=O)c1c(O)c(=O)ccn12 (single isomer, unassigned) [Compound 97BB]	< 6.30	> 1000
CC[C@H]1/C=C/COc2c(Cl)cccc2[C@H](c2ccccc2)N2CN1C(=O)c1c(O)c(=O)ccn12 (single isomer, unassigned) [Compound 98AA, (9*S,18*S,E)-4-chloro-9-ethyl-12-hydroxy-18-phenyl-6,9-dihydro-18H-10,17-methanobenzo[b]pyrido[1,2-f][1]oxa[5,6,9]triazacyclotridecine-11,13-dione]	< 6.30	> 1000
CC[C@@H]1/C=C/COc2c(Cl)cccc2[C@H](c2ccccc2)N2CN1C(=O)c1c(O)c(=O)ccn12 (single isomer, unassigned) [Compound 98AB, (9*R,18*S,E)-4-chloro-9-ethyl-12-hydroxy-18-phenyl-6,9-dihydro-18H-10,17-methanobenzo[b]pyrido[1,2-f][1]oxa[5,6,9]triazacyclotridecine-11,13-dione]	8.66	> 200
CC[C@H]1/C=C/COc2c(Cl)cccc2[C@@H](c2ccccc2)N2CN1C(=O)c1c(O)c(=O)ccn12 (single isomer, unassigned) [Compound 98BA, (9*S,18*R,E)-4-chloro-9-ethyl-12-hydroxy-18-phenyl-6,9-dihydro-18H-10,17-methanobenzo[b]pyrido[1,2-f][1]oxa[5,6,9]triazacyclotridecine-11,13-dione]	6.08	26400
CC[C@@H]1/C=C/COc2c(Cl)cccc2[C@@H](c2ccccc2)N2CN1C(=O)c1c(O)c(=O)ccn12 (single isomer, unassigned) [Compound 98BB, (9*R,18*R,E)-4-chloro-9-ethyl-12-hydroxy-18-phenyl-6,9-dihydro-18H-10,17-methanobenzo[b]pyrido[1,2-f][1]oxa[5,6,9]triazacyclotridecine-11,13-dione]	8.68	> 1000
O=C1c2c(O)c(=O)ccn2N2CN1CCOCCOc1ccccc1[C@H]2c1ccccc1 (single isomer, unassigned) [Compound 99A, (2*R)-18-hydroxy-2-phenyl-9,12-dioxa-1,15,22-triazatetracyclo[13.7.1.03,8.017,22]tricosa-3,5,7,17,20-pentaene-16,19-dione]	< 6.30	> 1000
O=C1c2c(O)c(=O)ccn2N2CN1CCOCCOc1ccccc1[C@@H]2c1ccccc1 (single isomer, unassigned) [Compound 99B, (2*S)-18-hydroxy-2-phenyl-9,12-dioxa-1,15,22-triazatetracyclo[13.7.1.03,8.017,22]tricosa-3,5,7,17,20-pentaene-16,19-dione]	6.78	> 1000
C[C@H]1C/C=C/COc2c(F)cccc2[C@@H](c2ccccc2)N2CN1C(=O)c1c(O)c(=O)ccn12 (single isomer, unassigned) [Compound 100AA, (2*R,9*S,*E)-33-fluoro-15-hydroxy-9-methyl-2-phenyl-12,13,14,16-tetrahydro-11H-4-oxa-1(1,3)-pyrido[2,1-f][1,2,4]triazina-3(1,2)-benzenacyclononaphan-6-ene-14,16-dione]	8.77	> 100
C[C@@H]1C/C=C/COc2c(F)cccc2[C@@H](c2ccccc2)N2CN1C(=O)c1c(O)c(=O)ccn12 (single isomer, unassigned) [Compound 100AB, (2*R,9*R,*E)-33-fluoro-15-hydroxy-9-methyl-2-phenyl-12,13,14,16-tetrahydro-11H-4-oxa-1(1,3)-pyrido[2,1-f][1,2,4]triazina-3(1,2)-benzenacyclononaphan-6-ene-14,16-dione]	8.68	> 200
C[C@H]1C/C=C/COc2c(F)cccc2[C@H](c2ccccc2)N2CN1C(=O)c1c(O)c(=O)ccn12 (single isomer, unassigned) [Compound 100BA, (2*S,9*S,*E)-33-fluoro-15-hydroxy-9-methyl-2-phenyl-12,13,14,16-tetrahydro-11H-4-oxa-1(1,3)-pyrido[2,1-f][1,2,4]triazina-3(1,2)-benzenacyclononaphan-6-ene-14,16-dione]	5.28	40200
C[C@@H]1C/C=C/COc2c(F)cccc2[C@H](c2ccccc2)N2CN1C(=O)c1c(O)c(=O)ccn12 (single isomer, unassigned) [Compound 100BB, (2*S,9*R,*E)-33-fluoro-15-hydroxy-9-methyl-2-phenyl-12,13,14,16-tetrahydro-11H-4-oxa-1(1,3)-pyrido[2,1-f][1,2,4]triazina-3(1,2)-benzenacyclononaphan-6-ene-14,16-dione]	5.94	32500
O=C1c2c(O)c(=O)ccn2N2CN1C/C=C\COc1c(ccc(Cl)c1Cl)[C@H]2c1ccccc1 (single isomer, unassigned) [Compound 103A, (18*R,Z)-3,4-dichloro-12-hydroxy-18-phenyl-6,9-dihydro-18H-10,17-methanobenzo[b]pyrido[1,2-f][1]oxa[5,6,9]triazacyclotridecine-11,13-dione]	< 7.00	> 200
